From ChEMBL document CHEMBL4725269, “Exploring the newer oxadiazoles as real inhibitors of human SIRT2 in hepatocellular cancer cells” (Bioorg Med Chem Lett, 2020) come the findings set out here.

Experiment [1] has as its system L02. Description: Cytotoxicity against human L02 cells assessed as reduction in cell proliferation measured after 72 hrs by MTT assay. The format is cell-based. The conditions noted are these: L02, 72 h.
Experiment [2] in a line: Antiproliferative activity against human HCCLM3 cells assessed as reduction in cell proliferation measured after 72 hrs by MTT assay. The format is functional, cell-based. The conditions noted are these: HCCLM3, 72 h. (Tetrazolium assays rely on reduction of a dye to a coloured formazan, in cell work by metabolically active cells.)
For experiment [3], the system named is HepG2. Description: Antiproliferative activity against human HepG2 cells assessed as reduction in cell proliferation measured after 72 hrs by MTT assay. The following applies: HepG2, 72 h. The format is functional, cell-based.
Experiment [4] deals with HepG2. Description: Cell cycle arrest in human HepG2 cells assessed as accumulation at subG1 phase at 15 uM measured after 72 hrs by FACS based flow cytometry analysis (reference value: 4 %). The format is functional.
Experiment [5] has as its system HepG2. Kind of experiment: Cell cycle arrest in human HepG2 cells assessed as accumulation at subG1 phase at 15 uM measured after 72 hrs by FACS based flow cytometry analysis (reference value: 3 %). The format is functional. On the technique in general: In flow cytometry, cells or beads pass a laser one at a time.
The subject of experiment [6] is HepG2. Kind of experiment: Cell cycle arrest in human HepG2 cells assessed as accumulation at subG1 phase at 5 uM measured after 72 hrs by FACS based flow cytometry analysis (reference value: 4 %). The format is functional.
Experiment [7] deals with HepG2. Kind of experiment: Cell cycle arrest in human HepG2 cells assessed as accumulation at subG1 phase at 15 uM measured after 24 hrs by FACS based flow cytometry analysis (reference value: 3 %). The format is functional.
Experiment [8] has as its system HepG2. Kind of experiment: Reduction in SIRT2 expression in human HepG2 cells at 15 uM by Western blot analysis. The following applies: time hrs 24-72, TDE = time-dependent effect. The format is functional, cell-based. Background: In western blotting, separated proteins are transferred to a membrane and probed.
The test system of experiment [9] is HepG2. Kind of experiment: Cell cycle arrest in human HepG2 cells assessed as accumulation at subG1 phase at 15 uM measured after 48 hrs by FACS based flow cytometry analysis (reference value: 3 %). The format is functional.
Experiment [10] concerns HepG2. Description: Reduction in SIRT2 expression in human HepG2 cells measured after 72 hrs by Western blot analysis. The format is functional, cell-based. The following applies: dose microM 5-30, time 72.0 hrs.
Experiment [11] relates to HepG2. Kind of experiment: Cell cycle arrest in human HepG2 cells assessed as accumulation at subG1 phase at 30 uM measured after 72 hrs by FACS based flow cytometry analysis (reference value: 4 %). The format is functional.

One may read the IC50 as the concentration needed to halve the response being measured. On to `Cn1nc(-c2nnc(-c3ccc(Br)cc3)o2)c2ccccc21`, for which the IC50 was greater than 100 µM in experiment [1], greater than 100 µM in [2] and 40 µM in experiment [3].

`Cn1nc(-c2nnc(-c3ccc(Cl)cc3)o2)c2ccccc21`: the IC50 in experiment [1] was greater than 100 µM; in experiment [2], greater than 100 µM; in experiment [3] it was 42 µM.

As to `Cn1nc(-c2nnc(-c3ccccc3Cl)o2)c2ccccc21`, the figures for the IC50 in experiment [1], in experiment [2] and in experiment [3] were greater than 100 µM, greater than 100 µM and 45 µM, respectively.

In the case of `Cn1nc(-c2nnc(-c3ccc(O)cc3)o2)c2ccccc21`, the figures for the IC50 in [1], in experiment [2] and in experiment [3] were greater than 100 µM, greater than 100 µM and 86.4 µM, respectively.

For the compound `Cn1nc(-c2nnc(-c3ccccc3)o2)c2ccccc21`, the IC50 in experiment [1] was 84.6 µM; in experiment [2], 100 µM; in experiment [3], 37.5 µM.

Take `Cn1nc(-c2nnc(-c3cccc(Cl)c3)o2)c2ccccc21`: the IC50 is greater than 100 µM in [1], greater than 100 µM in experiment [2] and 21.4 µM in [3].

Turning to `Cc1ccc(-c2nnc(-c3nn(C)c4ccccc34)o2)cc1`, the values for the IC50 in [1], in [2] and in [3] were greater than 100 µM, greater than 100 µM and 38.7 µM, respectively.

Turning to `Cc1ccc(C(=O)Nc2ccc(S(=O)(=O)O)c3cc(S(=O)(=O)O)cc(S(=O)(=O)O)c23)cc1NC(=O)c1cccc(NC(=O)Nc2cccc(C(=O)Nc3cc(C(=O)Nc4ccc(S(=O)(=O)O)c5cc(S(=O)(=O)O)cc(S(=O)(=O)O)c45)ccc3C)c2)c1` [SURAMIN], in experiment [3], the IC50 stood at 67.4 µM.

On to `Cn1nc(-c2nnc(-c3cccc(Br)c3)o2)c2ccccc21`, for which the figures for the IC50 in experiment [1], in experiment [2] and in experiment [3] were greater than 100 µM, greater than 100 µM and 24.5 µM, respectively.

Turning to `Cc1cccc(-c2nnc(-c3nn(C)c4ccccc34)o2)c1`, the IC50 was greater than 100 µM in [1], greater than 100 µM in experiment [2] and 60 µM in experiment [3].

Take `COc1ccc(-c2nnc(-c3nn(C)c4ccccc34)o2)cc1`: the Activity in [4] is on record as 41%; in [5], 55%; in experiment [6], 10%; in experiment [7], 10%; in experiment [9] it was 45%; in experiment [11], 55%. Moreover, the IC50 was greater than 100 µM in [1], greater than 100 µM in experiment [2] and 19.5 µM in experiment [3]. The figures for the inhibition entry in experiment [8] and in [10] were “Tde” and “Dose-dependent effect”, respectively.

Take `Cn1nc(-c2nnc(-c3ccccc3Br)o2)c2ccccc21`: the IC50 in [1] was 89 µM; in experiment [2], greater than 100 µM; in [3], 22.3 µM.

With `CC(=O)O[C@H]1C(=O)[C@@]2(C)[C@H]([C@H](OC(=O)c3ccccc3)[C@]3(O)C[C@H](OC(=O)[C@H](O)[C@@H](NC(=O)c4ccccc4)c4ccccc4)C(C)=C1C3(C)C)[C@]1(OC(C)=O)CO[C@@H]1C[C@@H]2O` [PACLITAXEL], the IC50 in experiment [3] came to 3.9 µM.
